This note sets out measurements from patent publication US6235736A, “3-anilino-2-cycloalkenone derivatives” (Nikken Chemicals Co., Ltd., priority 1997, dated 2001).

SMILES strings stand for the structures.

The test system of one assay is Type IV PDE. As to the kind of experiment: PDE IV inhibitory activity (isozyme partially purified from rat neutrophils, 3H-cAMP substrate). To be noted: rat neutrophil PDE IV, 30° C., 30 minutes, read-out: PDE IV inhibiting action IC50. The class given is biochemical. Here is the method:
Type I, III, IV, and V PDE isozymes were prepared to study the PDE inhibitory activities of and selectivities with the compound of the invention [Trends Pharmacol Sci., 12, 19-27 (1991)]. Type I PDE was purchased from Sigma Corp. Type III, IV, and V PDE isozymes were partially purified from platelets (Type III and V) or neutrophils (Type IV) collected from rats. Each enzyme source was homogenized in a buffer (pH 6.5) containing 20 mM bisTris, 2 mM EDTA (i.e., ethlenediamine tetraacetate), 2-mercaptoethanol, 0.001 mM pepstatin and 0.01 mM leupeptin and was centrifuged at 30000×G for 30 minutes to obtain a supernatant, which was applied to an ion exchange column (Q-sepharose first flow, Pharmacia Corp.) and was eluted with 0 to 1M sodium acetate. Partially purified isozymes were identified by observing the inhibitory effects of conventional inhibitors.
Each PDE isozyme and the test compound dissolved in DMSO (i.e., dimethylsulfoxide) were added to 50 mM Tris--HCI buffer containing 5 mM magnesium chloride. ^3 H-cAMP (for type III and IV PDE) or ^3 H-cGMP (for type I and V PDE) were added as substrates and were reacted at 30° C. for 30 minutes. The reaction was terminated by placing the test tube in boiling water of 100° C. for 5 minutes. The nucleotides formed by PDE were broken down to ^3 H-adenosine or ^3 H-guanosine by 5'-nucleotidase. The substrate and reaction product were separated through an ion-exchange column (i.e., QAE sephadex, Pharmacia Corp.)
The eluted ^3 -H-nucleoside was measured for its radioactivity by a liquid scintillation counter. The inhibitory activities of the compound of the present invention are shown by the IC50 value (M). Further, the inhibitory activities of the test samples against type I, III, and V PDE are 1/10 or less than that against Type IV PDE.
Turning to `COc1ccc(NC2=C(CN(C)C)C(=O)CC2)cc1OC1CCCC1` [Compound No. 24, 3-(3-cyclopentyloxy-4-methoxyanilino)-2-dimethylaminomethyl-2-cyclopenten-1-one], the half-inhibitory concentration (IC50) was determined as 61 µM.

Turning to `COc1ccc(NC2=CC(=O)CCC2)cc1OC1Cc2ccccc2C1` [Compound No. 19, 3-[3-(2-indanyloxy)-4-methoxyanilino]-2-cyclohexen-1-one], the half-maximal inhibitory concentration (IC50) turned out to be 1.8 µM.

For the compound `COc1ccc(N(Cc2cccnc2)C2=CC(=O)CC2)cc1OC1CCCC1` [Compound No. 63, 3-[3-cyclopentyloxy-4-methoxy-N-(3-pyridylmethyl)anilino]2-cyclopenten-1-one], the half-inhibitory concentration (IC50) came to 5.3 µM.

For the compound `COc1ccc(N(Cc2ccccc2)C2=C(C)C(=O)CC2)cc1OC1CCCC1` [Compound No. 71, 3-(N-benzyl-3-cyclopentyloxy-4-methoxyanilino)-2-methyl-2-cyclopenten-1-one], the IC50 worked out at 8.2 µM.

Turning to `COc1ccc(N(Cc2ccc3ccccc3c2)C2=CC(=O)CCC2)cc1OC1Cc2ccccc2C1` [Compound No. 67, 3-[3-(2-indanyloxy)-4-methoxy-N-(2-naphthylmethyl)anilino]-2-cyclohexen-1-one], the IC50 stood at 3.8 µM.

For the compound `COc1ccc(N(Cc2ccncc2)C2=CC(=O)CC2)cc1OC1Cc2ccccc2C1` [Compound No. 78, 3-[3-(2-indanyloxy)-4-methoxy-N-(4-pyridylmethyl)anilino]-2-cyclopenten-1-one], the 50% inhibitory concentration (IC50) was found to be 1.3 µM.

As for `COc1ccc(N(Cc2ccccc2)C2=CC(=O)CCC2)cc1O[C@@H]1C[C@H]2CC[C@@H]1C2` (relative stereo) [Compound No. 84, 3-[N-benzyl-3-[rel(1R,2R,4S)-bicyclo[2.2. 1]hept-2-yloxy]-4-methoxyanilino]-2-cyclohexen-1-one], the 50% inhibitory concentration (IC50) worked out at 1.4 µM.

As for `COc1ccc(N(C)C2=CC(=O)CC2)cc1OC1Cc2ccccc2C1` [Compound No. 76], the IC50 was 0.13 µM.

`COc1ccc(NC2=CC(=O)CC2)cc1OCCc1cccc2ccccc12` [compound 42, 3-[4-methoxy-3-[2-(1-naphthyl)ethoxy]anilino]-2-cyclopenten-1-one]: the 50% inhibitory concentration (IC50) stood at 9.6 µM.

Regarding `COc1ccc(NC2=CC(=O)CC(c3ccccc3)C2)cc1OC1CCCC1` (stereo not shown) [Compound No. 39, 3-(3-cyclopentyloxy-4-methoxyanilino)-5-phenyl-2-cyclohexen-1-one], the IC50 was 3.9 µM.

For `COc1ccc(NC2=CC(=O)CC(C)C2)cc1OC1CCCC1` (stereo not shown) [Compound No. 5, 3-(3-cycloientyloxy-4-methoxyanilino)-5-methyl-2-cyclohexen-1-one], the 50% inhibitory concentration (IC50) worked out at 2.2 µM.

With `COc1ccc(NC2=CC(=O)CC2)cc1OCCc1ccccc1` [Compound No. 11, 3-(4-methoxy-3-phenethyloxyanilino)-2-cyclopenten-1-one], the 50% inhibitory concentration (IC50) came to 4 µM.

In the case of `COc1ccc(N(C(C)=O)C2=CC(=O)CC2)cc1OC1CCCC1` [Compound No. 29, 3-(N-acetyl-3-cyclopentyloxy-4-methoxyanilino)-2-cyclopenten-1-one], the IC50 was 48 µM.

As for `COc1ccc(NC2=CC(=O)CC2)cc1OCC1CCC1` [Compound No. 51, 3-(3-cyclobutylmethoxy-4-methoxyanilino)-2-cyclopenten-1-one], the 50% inhibitory concentration (IC50) turned out to be 1.9 µM.

For the compound `CCCCOc1cc(NC2=C(C)C(=O)CC2)ccc1OC` [Compound No. 18, 3-(3-butoxy-4-methoxyanilino)-2-methyl-2-cyclopenten-1-one], the concentration for half-maximal inhibition (IC50) is 1.7 µM.

On to `COc1ccc(NC2=CC(=O)CC(C)(C)C2)cc1OC1CCCC1` [Compound No. 3, 3-(3-cycloientyloxy-4-methoxyanilino)-5,5-dimethyl-2-cyclohexen-1-one], for which the half-maximal inhibitory concentration (IC50) worked out at 4.9 µM.

`COc1ccc(NC2=CC(=O)CC2)cc1OCCC1Cc2ccccc2C1` [Compound No. 34, 3-[3-[2-(2-indanyl)ethoxy]-4-methoxyanilino]-2-cyclopenten-1-one]: the half-inhibitory concentration (IC50) was 1.8 µM.

Consider `COc1ccc(NC2=C(C)C(=O)CCC2)cc1O[C@@H]1C[C@H]2CC[C@@H]1C2` (racemic) [Compound No. 46, 3-[3-[(1RS,2RS,4SR)-bicyclo[2.2. 1]hept-2-yloxy]-4-methoxyanilino]-2-methyl-2-cyclohexen-1-one], for which the IC50 came to 0.26 µM.

For the compound `COc1ccc(N(Cc2ccc3ccccc3n2)C2=C(C)C(=O)CC2)cc1OC1CCCC1` [Compound No. 72, 3-[3-cyclopentyloxy-4-methoxy-N-(2-quinolylemethyl)anilino]-2-methyl-2-cyclopenten-1-one], the IC50 turned out to be 3 µM.

Regarding `COc1ccc(NC2=C(C)C(=O)CC2)cc1OCCc1cccc2ccccc12` [Compound No. 43, 3-[4-methoxy-3-[2-(1-naphthyl)ethoxy]anilino]-2-methyl-2-cyclopenten-1-one], the half-maximal inhibitory concentration (IC50) worked out at 1.3 µM.

As for `COc1ccc(NC2=C(C)C(=O)CC2)cc1OC1CCCC1` [Compound No. 4, 3-(3-cyclopentyloxy-4-methoxyanilino)-2-methyl-2-cyclopenten-1-one], the IC50 worked out at 0.39 µM.

Regarding `COc1ccc(NC2=C(C)C(=O)CCC2)cc1OCC1CCCC1` [Compound No. 54, 3-(3-cyclopentylmethoxy-4-methoxyanilino)-2-methyl-2-cyclohexen-1-one], the 50% inhibitory concentration (IC50) is 0.73 µM.

Regarding `COc1ccc(NC2=C(C)C(=O)CC2)cc1OCC1CCCC1` [Compound No. 41, 3-(3-cyclopentylmethoxy-4-methoxyanilino)-2-methyl-2-cyclopenten-1-one], the IC50 turned out to be 0.94 µM.

For `COc1ccc(NC2=CC(=O)CCC2)cc1OCc1ccccc1` [Compound No. 20, 3-(3-benzyloxy-4-methoxyanilino)-2-cyclohexen-1-one], the half-maximal inhibitory concentration (IC50) worked out at 44 µM.

As for `COc1ccc(NC2=CC(=O)CC2)cc1OCC1CCCC1` [Compound No. 40, 3-(3-cyclopentylmethoxy-4-methoxyanilino)-2-cyclopenten-1-one], the 50% inhibitory concentration (IC50) is 4 µM.

Turning to `COc1ccc(N(Cc2ccc3ccccc3c2)C2=C(C)C(=O)CC2)cc1OC1Cc2ccccc2C1` [Compound No. 74, 3-[3-(2-indanyloxy)-4-methoxy-N-(2-naphthylmethyl)anilino]-2-methyl-2-cyclopenten-1-one], the IC50 turned out to be 3.5 µM.

Regarding `COc1ccc(NC2=C(Cc3ccccc3)C(=O)CCC2)cc1OC1CCCC1` [Compound No. 69, 2-benzyl-3-(3-cyclopentyloxy-4-methoxyanilino)-2-cyclohexen-1-one], the IC50 was found to be 1.1 µM.

Regarding `COc1ccc(NC2=C(CN3CCOCC3)C(=O)CC2)cc1OC1CCCC1` [Compound No. 25, 3-(3-cyclopentyloxy-4-methoxyanilino)-2-(4-morpholinomethyl)-2-cyclopenten-1-one], the IC50 came out at 17 µM.

Turning to `COc1ccc(NC2=CC(=O)CC2)cc1OCC1CC1` [Compound No. 15, 3-(3-cyclopropylmethoxy-4-methoxyanilino)-2-cyclopenten-1-one], the 50% inhibitory concentration (IC50) stood at 7.1 µM.

Regarding `COc1ccc(N(C)C2=C(C)C(=O)CC2)cc1OC1CCCC1` [Compound No. 70, 3-(3-cyclopentyloxy-4-methoxy-N-methylanilino)-2-methyl-2-cyclopenten-1-one], the IC50 came out at 3.1 µM.

On to `COc1ccc(NC2=C(C)C(=O)CC2)cc1OCC1CCC1` [Compound No. 52, 3-(3-cyclobutylmethoxy-4-methoxyanilino)-2-methyl-2-cyclopenten-1-one], for which the IC50 amounted to 0.55 µM.

Consider `COc1ccc(NC2=CC(=O)C(C)(C)CC2)cc1OC1CCCC1` [Compound No. 38, 3-(3-cyclopentyloxy-4-methoxyanilino)-6,6-dimethyl-2-cyclohexen-1-one], for which the half-maximal inhibitory concentration (IC50) was determined as 17 µM.

Regarding `COc1ccc(NC2=C(Cl)C(=O)CC2)cc1OC1CCCC1` [Compound No. 6, 2-chloro-3-(3-cyclopentyloxy-4-methoxyanilino)-2-cyclopenten-1-one], the concentration for half-maximal inhibition (IC50) was 0.54 µM.

Turning to `COc1ccc(NC2=CC(=O)CC2)cc1OC1CCOC1` (stereo not shown) [Compound No. 36, 3-[4-methoxy-3-(3-2,3,4,5-tetrahydrofuranyloxy)anilino]-2-cyclopenten-1-one], the IC50 came out at 8.9 µM.

In the next assay the test system is TPA induced ear edema in mouse. The assay can be described thus: TPA induced mouse ear edema assay. The class given is in vivo, mouse (male ICR). To be noted: 0.1 mg applied to right ear immediately after TPA; 6 hour. As to the method:
Male ICR mice, 5 week old, were divided into groups of seven to eight. 2 μg of TPA (phorbor 12-ministate; Sigma Co.) in 20 μl acetone was applied to the inner and outer surface of right ear of each mouse to cause a reaction. 0.1 mg of compound was dissolved in 20 μl of a tetrahydrofuran-methanol mixture (mixture ratio 1:1) and the solution (20 μl) applied to the right ear immediately after TPA treatment. After 6 hour, the animals were sacrificed and right ear was punched out (.phi. […]) and weighed. The effect of comppund.was calculated as % inhibition as follows: [formula]
With `COc1ccc(NC2=CC(=O)CCC2)cc1OC1Cc2ccccc2C1` [Compound No. 19, 3-[3-(2-indanyloxy)-4-methoxyanilino]-2-cyclohexen-1-one], the “% Inhibition of ear edema” value is 76.3%.

In the case of `COc1ccc(N(Cc2cccnc2)C2=CC(=O)CC2)cc1OC1CCCC1` [Compound No. 63, 3-[3-cyclopentyloxy-4-methoxy-N-(3-pyridylmethyl)anilino]2-cyclopenten-1-one], the “% Inhibition of ear edema” value is listed as 75.4%.

Turning to `COc1ccc(N(Cc2ccc3ccccc3c2)C2=CC(=O)CCC2)cc1OC1Cc2ccccc2C1` [Compound No. 67, 3-[3-(2-indanyloxy)-4-methoxy-N-(2-naphthylmethyl)anilino]-2-cyclohexen-1-one], the “% Inhibition of ear edema” value came out at 60.8%.

On to `COc1ccc(N(Cc2ccncc2)C2=CC(=O)CC2)cc1OC1Cc2ccccc2C1` [Compound No. 78, 3-[3-(2-indanyloxy)-4-methoxy-N-(4-pyridylmethyl)anilino]-2-cyclopenten-1-one], for which the “% Inhibition of ear edema” value was 82.2%.

On to `COc1ccc(N(Cc2ccccc2)C2=CC(=O)CCC2)cc1O[C@@H]1C[C@H]2CC[C@@H]1C2` (relative stereo) [Compound No. 84, 3-[N-benzyl-3-[rel(1R,2R,4S)-bicyclo[2.2. 1]hept-2-yloxy]-4-methoxyanilino]-2-cyclohexen-1-one], for which the “% Inhibition of ear edema” value amounted to 71.8%.

Take `COc1ccc(N(C)C2=CC(=O)CC2)cc1OC1Cc2ccccc2C1` [Compound No. 76]: the “% Inhibition of ear edema” value is reported as 52.7%.

As a reminder, the IC50 is the concentration at which inhibition is half-maximal.
